Experimental data as given in PMC8552062, “Contributions of UDP-Glucuronosyltransferases to Human Hepatic and Intestinal Metabolism of Ticagrelor and Inhibition of UGTs and Cytochrome P450 Enzymes by Ticagrelor and its Glucuronidated Metabolite” (Frontiers in Pharmacology, 2021).

Assays:
Format in all cases: in vitro ADME
[1] = biological target: T1, UGT1A6 (Homo sapiens, UniProt P19224); assay: UGT1A6 inhibition in HLM (N-Acetyl serotonin glucuronidation); parameters: tissue XenoTech LLC; host or cells: pooled human liver microsomes; settings: for IC50: UGT1A6, N-Acetyl serotonin glucuronide formation in HLM; for inhibition at 100 µM: human, human liver microsomes (HLM), probe N-Acetyl serotonin, HLM, 100 μM test compound
T1 sequence (P19224 27-532): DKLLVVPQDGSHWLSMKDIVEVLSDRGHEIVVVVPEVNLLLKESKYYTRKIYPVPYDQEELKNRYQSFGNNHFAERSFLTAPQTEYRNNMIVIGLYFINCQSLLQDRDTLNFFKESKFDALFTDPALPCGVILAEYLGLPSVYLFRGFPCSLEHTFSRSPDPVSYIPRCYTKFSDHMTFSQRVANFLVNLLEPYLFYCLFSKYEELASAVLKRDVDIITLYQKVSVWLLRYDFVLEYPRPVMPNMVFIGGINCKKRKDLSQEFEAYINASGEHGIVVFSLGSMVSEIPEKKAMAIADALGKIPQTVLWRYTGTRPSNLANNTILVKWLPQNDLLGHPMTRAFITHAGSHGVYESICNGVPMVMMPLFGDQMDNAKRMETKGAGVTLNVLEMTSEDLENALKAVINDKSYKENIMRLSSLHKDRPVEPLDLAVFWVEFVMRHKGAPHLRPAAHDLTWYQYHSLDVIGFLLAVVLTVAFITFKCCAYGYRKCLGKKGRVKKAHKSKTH
Experimental: (§1) To assess drug-drug interactions (DDIs) potential caused by ticagrelor and ticagrelor-O-Glu through the inhibition of the major human UGTs enzymes, selective UGT probe substrates were co-incubated with ticagrelor or ticagrelor-O-Glu in HLM. The formation of metabolites, SN-38 glucuronide, chenodeoxycholic acid 24-acyl-β-D-glucuronide, trifluoperazine N-glucuronide, N-Acetyl serotonin glucuronide, mycophenolic acid glucuronide and 3′-azide-3′-deoxythymidine β-D-glucuronide, which could reflect the enzyme activities of UGT1A1, UGT1A3, UGT1A4, UGT1A6, UGT1A9 and UGT2B7, respectively, were quantified using LC-MS/MS. Three different concentrations of ticagrelor or ticagrelor-O-Glu (1, 10 and 100 μM) were added to the incubation system in the presence of selective UGT probe substrates (SN-38, chenodeoxycholic acid, trifluoperazine, N-Acetyl serotonin, mycophenolic acid and 3′-azide-3′-deoxythymidine), respectively. The assays were performed as described above. The control was treated with a vehicle solvent only. A triple determination was performed.
(§2) The percent inhibition relative to the control was calculated to indicate the UGTs or CYPs inhibition. For inhibition exceeding 50% of the control activity, nonlinear regression analysis was used to estimate the IC50 values using the GraphPad Prism 6 (GraphPad Software Inc., CA, United States).

[2] = biological target: T2, recombinant human UGT2B4 (Homo sapiens, UniProt P06133); assay: Ticagrelor glucuronidation screen, recombinant human UGT2B4; settings: 10 μM ticagrelor
T2 construct: purchased BD Gentest; host or cells: baculovirus-infected insect cells
T2 sequence (P06133 24-528): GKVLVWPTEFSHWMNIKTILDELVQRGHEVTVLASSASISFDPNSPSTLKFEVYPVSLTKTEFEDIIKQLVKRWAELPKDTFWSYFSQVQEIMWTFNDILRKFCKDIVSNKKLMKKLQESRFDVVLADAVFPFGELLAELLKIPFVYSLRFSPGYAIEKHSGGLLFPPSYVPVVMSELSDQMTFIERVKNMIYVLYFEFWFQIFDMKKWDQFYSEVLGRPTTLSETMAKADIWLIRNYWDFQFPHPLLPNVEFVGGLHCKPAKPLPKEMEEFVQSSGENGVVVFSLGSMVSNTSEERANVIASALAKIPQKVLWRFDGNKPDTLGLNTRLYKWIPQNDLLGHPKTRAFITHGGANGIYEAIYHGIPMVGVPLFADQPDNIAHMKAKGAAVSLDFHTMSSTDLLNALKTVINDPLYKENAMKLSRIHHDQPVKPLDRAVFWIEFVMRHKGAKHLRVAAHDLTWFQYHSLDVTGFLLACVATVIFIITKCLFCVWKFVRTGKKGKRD
Experimental: (§3) Ticagrelor glucuronidation was investigated in an in vitro incubation system by using HLM, HIM, and recombinant human UGTs. The incubation system consisted of enzyme sources (HLM, HIM, or human recombinant UGTs), various concentrations of ticagrelor (dissolved in 50% methanol, 1% v/v, 1, 2, 5, 10, 20, 50, 100, 200, 500 μM of final concentration), alamethicin (50 μg/mg protein), 5 mM MgCl2, 100 mM tris-HCL buffer (pH 7.4), and 5 mM UDPGA in a total volume of 100 μl. Alamethicin is a pore-forming polypeptide used to activate UGTs in HLM and HIM ([Fisher et al., 2000]). Preliminary studies were conducted to determine the optimal protein concentrations and incubation times. Linear conditions of ticagrelor-O-Glu formation from ticagrelor, i.e., HLM, 0.2 mg of protein/ml and 60 min, HIM, 0.2 mg of protein/ml and 60 min, and recombinant human UGTs, 0.2 mg of protein/ml and 60 min were selected. The incubation mixture without UDPGA was placed on ice for 15 min to activate UGT by alamethicin. After pre-incubation for 5 min at 37°C, the reactions were started by the addition of UDPGA. After another 60 min of incubation at 37°C, the reaction was terminated by adding 100 μl of acetonitrile containing internal standard (diazepam). The mixture vortexed for 2 min and then centrifuged at 14,000 rpm for 10 min at 4°C. […]

[3] = biological target: T3, recombinant human UGT2B17 (Homo sapiens, UniProt O75795); assay: Ticagrelor glucuronidation screen, recombinant human UGT2B17; settings: 10 μM ticagrelor
T3 construct: purchased BD Gentest; host or cells: baculovirus-infected insect cells
T3 sequence (O75795 24-530): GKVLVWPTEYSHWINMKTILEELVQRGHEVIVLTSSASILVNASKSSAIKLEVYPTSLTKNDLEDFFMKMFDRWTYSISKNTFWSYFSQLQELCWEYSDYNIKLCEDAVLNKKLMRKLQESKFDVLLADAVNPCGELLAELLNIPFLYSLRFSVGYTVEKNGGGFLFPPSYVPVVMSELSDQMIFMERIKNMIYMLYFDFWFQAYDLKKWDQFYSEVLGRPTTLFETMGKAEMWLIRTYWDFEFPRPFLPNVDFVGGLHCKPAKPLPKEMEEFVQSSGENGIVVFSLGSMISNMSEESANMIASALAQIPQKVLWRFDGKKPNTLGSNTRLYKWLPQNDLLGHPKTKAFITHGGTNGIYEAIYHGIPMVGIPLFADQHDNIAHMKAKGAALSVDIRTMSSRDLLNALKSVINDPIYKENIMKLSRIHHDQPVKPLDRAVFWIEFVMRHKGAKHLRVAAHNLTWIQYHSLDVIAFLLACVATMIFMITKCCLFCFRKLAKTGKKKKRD
Experimental: as §3

[4] = biological target: T4, UGT1A9 (Homo sapiens, UniProt O60656); assay: UGT1A9 inhibition in HLM (mycophenolic acid glucuronidation); parameters: tissue XenoTech LLC; host or cells: pooled human liver microsomes; settings: for IC50: UGT1A9, mycophenolic acid glucuronide formation in HLM; for inhibition at 100 µM: human, human liver microsomes (HLM), probe mycophenolic acid, HLM, 100 μM test compound
T4 sequence (O60656 26-530): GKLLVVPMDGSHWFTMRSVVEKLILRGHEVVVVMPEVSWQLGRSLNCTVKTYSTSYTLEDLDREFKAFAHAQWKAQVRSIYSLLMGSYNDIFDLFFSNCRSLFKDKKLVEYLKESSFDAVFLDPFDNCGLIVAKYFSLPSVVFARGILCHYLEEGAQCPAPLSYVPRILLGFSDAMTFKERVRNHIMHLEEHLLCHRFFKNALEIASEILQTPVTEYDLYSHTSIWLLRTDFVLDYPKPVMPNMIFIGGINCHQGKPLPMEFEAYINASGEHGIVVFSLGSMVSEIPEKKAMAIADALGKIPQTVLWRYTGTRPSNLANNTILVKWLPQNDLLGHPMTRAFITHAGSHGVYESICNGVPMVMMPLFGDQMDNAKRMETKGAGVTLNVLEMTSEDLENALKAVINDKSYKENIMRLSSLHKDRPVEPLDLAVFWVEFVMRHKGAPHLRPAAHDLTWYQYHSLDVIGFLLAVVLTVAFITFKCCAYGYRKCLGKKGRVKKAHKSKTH
Experimental: as §1, §2

| Compound | IC50 [1] [µM] | inhibition at 100 µM [1] [%] | glucuronidation activity for ticagrelor [2] | glucuronidation activity for ticagrelor [3] | IC50 [4] [µM] | inhibition at 100 µM [4] [%] |
| --- | --- | --- | --- | --- | --- | --- |
| CCCSc1nc(N[C@@H]2C[C@H]2c2ccc(F)c(F)c2)c2nnn([C@@H]3C[C@H](OCCO)[C@@H](O)[C@H]3O)c2n1 [Ticagrelor] | > 100 | 12.7 | no glucuronidation activities | no glucuronidation activities | > 100 | 13.3 |
| CCCSc1nc(N[C@@H]2C[C@H]2c2ccc(F)c(F)c2)c2nnn([C@@H]3C[C@H](OCCO[C@@H]4O[C@H](C(=O)O)[C@@H](O)[C@H](O)[C@H]4O)[C@@H](O)[C@H]3O)c2n1 [Ticagrelor-O-Glu, ticagrelor-O-glucuronide] | > 100 | 28.5 |  |  | ~100 | 61.4 |
